Test results as given in patent publication US8592443B2, “Use of 4 cyclopropylmethoxy-N-(3,5 dichloro-1 oxido-pyridin-4 yl)-5-(methoxy)pyridine-2-carboxamide for the treatment of spinal cord traumas” (Sanofi, priority 2007, dated 2013).

Tests used:
[1] = system: model of spinal trauma in the mouse; experiment: Beam balance test in a model of spinal trauma in the mouse; assay type: in vivo; conditions: for Travel time (% deficiency): 0.01 mg/kg po at +4 h then daily; for Travel time (% deficiency) / Travel time (% motor function deficiency): 100% = trauma + carrier; for Balance beam test result (time to reach the opposite end of the beam): 0.01 mg/kg orally 4 h after lesion then daily, OF1 mice; for Travel time (% motor function deficiency): 0.03 mg/kg po at +4 h and +6 h then daily
Procedure: The effects of 4-cyclopropylmethoxy-N-(3,5-dichloro-1-oxidopyridin-4-yl)-5-(methoxy)pyridine-2-carboxamide used according to the invention were evaluated in a model of spinal trauma in the mouse using the beam balance test (P. Barnéoud, NeuroReport 1997, 8, 2861-2865).
The Beam Balance test consists in placing the mouse at the end of a horizontal beam 30 cm long and 1.5 cm wide, raised 20 cm above the ground. The time required for the mouse to reach the opposite end of the beam is measured. The test is stopped after 12 seconds.
[…] female OF1 mice (Iffa Credo Lyon, France) weighing 12 to 14 g are placed in experimental cages (32×21×14 cm) provided with an endless supply of food and water, at the controlled temperature of 22±1° C.
The mice are subjected to a pre-learning phase which allows them to become familiar with the evaluation test and allows them to reach an optimal and identical level of performance.
The animals are subsequently divided up into three groups, and then a trauma is induced in a controlled manner in two of the three groups of mice before the beginning of the test phase.
This trauma consists of a lesion of the spinal cord located at the level of the thoracic vertebra Th8. The lesion is generated by 3 successive cycles of freezing-thawing by applying liquid nitrogen.
The functional consequences of the trauma are then measured at days 2, 7, 14 and 21 and also at day 28.
The following groups were formed: • Group 1 (no trauma) is composed of control animals which are not subjected to any trauma. • Group 2 (trauma alone) is composed of traumatized animals to which one dose per day of carrier (methyl-cellulose (MC) (0.6%) +tween-80 (0.5%) in water) is administered. • Group 3 (trauma+active ingredient 0.01 mg/kg at +4 hours) receives a solution containing 4-cyclopropylmethoxy-N-(3,5-dichloro-1-oxidopyridin-4-yl)-5-(methoxy)pyridine-2-carboxamide (0.01 mg/kg) in the carrier (MC (0.6%)+tween-80 (0.5%) in water), orally, 4 hours after the lesion, and then daily, orally, for 4 weeks after the trauma.
An experiment similar to that of Example 1 was carried out by administering ((4R)-4-[3-(cyclopentyloxy)-4-methoxyphenyl]pyrrolidine-2-one) to 34-week-old OF1 mice (Charles River, France) weighing 12 to 14 g, in the treatment of spinal cord traumas.
The mice were tested in the beam balance test, according to operating conditions identical to those described above.
The following groups were formed: • Group A (no trauma) is composed of control animals which are not subjected to any trauma. • Group B (trauma alone) is composed of traumatized animals to which one dose per day of carrier (2% PEG 200) is administered. • Group C (trauma+active ingredient 0.03 mg/kg at +4 hours) receives a solution containing (R)-(−)-Rolipram (0.03 mg/kg) in the carrier (2% PEG 200), orally, 4 hours and 6 hours after the lesion, and then daily, orally, for 4 weeks after the trauma.
The results obtained for each group of mice are expressed as percentage (%) deficiency of motor functions in the traumatized mice compared with the non-traumatized mice:
To do this, the difference in time taken between the group of mice tested to which (R)-(−)-Rolipram was administered (group C) and the group of non-traumatized mice (group A) is measured and expressed as a percentage relative to the difference in time taken between the traumatized mice to which one dose per day of carrier was administered (group B) and the time taken by the non-traumatized mice (group A). This ratio therefore gives the percentage deficiency in motor functions of the traumatized mice compared with the non-traumatized mice.
This calculation of the percentage deficiency of the mice tested is performed according to the following formula: % deficiency of group (c)=[(mean of the travel time of group C)−(mean of the travel time of group A)]/[(mean of the travel time of group B)−(mean of the travel time of group A)]

ferret = experiment: Evaluation of emetic effects in the ferret; assay type: in vivo; conditions: observed up to 6 hours after administration; for Emetic effects (vomiting): ferrets
Procedure: The emetic capacity of 4-cyclopropylmethoxy-N-(3,5-dichloro-1-oxidopyridin-4-yl)-5-(methoxy)pyridine-2-carboxamide was evaluated in the ferret. Two groups of ferrets were used, the first being given the carrier (PEG 200) and the second being given 4-cyclopropyl-methoxy-N-(3,5-dichloro-1-oxidopyridin-4-yl)-5-(methoxy)pyridine-2-carboxamide in solution in the carrier (PEG 200), by oral gavage, at doses of 0.05 mg/kg and 0.1 mg/kg. The animals were observed continually for the 2 hours following administration and then every hour up to 6 hours after administration. The clinical signs (in particular retching and vomiting) were noted.
The emetic capacity of […] was evaluated in the ferret. Two groups of ferrets were used, the first receiving the carrier (PEG200) and the second receiving […] in solution in the carrier (PEG200), by oral gavage, at doses of 0.05 mg/kg and 0.1 mg/kg. The animals were observed continually for the 2 hours following administration and then every hour up to 6 hours after administration. The clinical signs were noted.

**Q.** Which results are given for `COc1cnc(C(=O)Nc2c(Cl)c[n+]([O-])cc2Cl)cc1OCC1CC1` [4-cyclopropylmethoxy-N-(3,5-dichloro-1-oxidopyridin-4-yl)-5-(methoxy)pyridine-2-carboxamide]?
**A.** Degree of motor function deficiency compared with (R)-(−)-Rolipram ([1]; 0.01 mg/kg po versus (R)-(−)-Rolipram 0.03 mg/kg po, traumatized mice): less than that of the animals treated with (R)-(−)-Rolipram; Travel time (% deficiency) ([1]; D + 2, 0% = no trauma): 84%; Balance beam test result (time to reach the opposite end of the beam) ([1]; D + 2 after trauma, test stopped after 12 seconds): 10.71 s; Travel time (% deficiency) ([1]; D + 7, 0% = no trauma): 72%; Balance beam test result (time to reach the opposite end of the beam) ([1]; D + 7 after trauma): 8.67 s; Travel time (% deficiency) ([1]; D + 14, 0% = no trauma): 49%; Balance beam test result (time to reach the opposite end of the beam) ([1]; D + 14 after trauma): 6.35 s; Travel time (% deficiency) ([1]; D + 21, 0% = no trauma): 60%; Balance beam test result (time to reach the opposite end of the beam) ([1]; D + 21 after trauma): 6.17 s; Travel time (% deficiency) ([1]; D + 28, 0% = no trauma): 44%; Balance beam test result (time to reach the opposite end of the beam) ([1]; D + 28 after trauma): 5.18 s; Travel time (% deficiency) ([1]; Mean of D + 2 to D + 28): 62%; Re-establishment of motor functions versus non-treated traumatized animals ([1]; traumatized mice, curative administration (group 3 vs group 2)): better re-establishment in terms of motor functions; Emetic effects (retching and vomiting) (ferret; 0.1 mg/kg by oral gavage in PEG 200, 5 ferrets): no retching or vomiting

**Q.** Which “Travel time (% motor function deficiency)” value ([1]; D + 2, 0% = no trauma) does the source give for `COc1ccc([C@@H]2CNC(=O)C2)cc1OC1CCCC1` [(R)-(−)-Rolipram, ((4R)-4-[3-(cyclopentyloxy)-4-methoxyphenyl]pyrrolidine-2-one), reference compound] here?
**A.** 110%

**Q.** And the “Travel time (% motor function deficiency)” value ([1]; D + 7, 0% = no trauma)?
**A.** 67%

**Q.** What about the “Travel time (% motor function deficiency)” value ([1]; D + 14, 0% = no trauma) of the same compound?
**A.** 48%

**Q.** And the “Travel time (% motor function deficiency)” value ([1]; D + 21, 0% = no trauma)?
**A.** 122%

**Q.** What about the “Travel time (% motor function deficiency)” value ([1]; D + 28, 0% = no trauma) of the same compound?
**A.** 108%

**Q.** What about the “Travel time (% motor function deficiency)” value ([1]; Mean of D + 2 to D + 28) of the same compound?
**A.** 91%

**Q.** What about the “Emetic effects (vomiting)” value (ferret; 0.05 mg/kg by oral gavage in PEG200) of the same compound?
**A.** induces vomiting

**Q.** And the “Emetic effects (vomiting)” value (ferret; 0.1 mg/kg by oral gavage in PEG200)?
**A.** induces vomiting
